Each structure is given as a SMILES string.

Experimental findings from patent US11857567B2, “Hypertonic pharmaceutical compositions containing an anti-platinum chemoprotectant agent” (Decibel Therapeutics, Inc., priority 2018, dated 2024) are described below.

For this experiment, the system named is cisplatin-induced hearing loss in guinea pigs. Kind of experiment: Hearing protection by locally delivered STS Composition from cisplatin challenge (ABR). The note with it: at both 24 kHz and 32 kHz. The format is in vivo, guinea pig. From the text:
Historical ABR data were used to define a baseline. The animals were anesthetized with tiletamine hydrochloride and zolazepam hydrochloride (Zoletil). Acoustic stimuli were delivered via an earphone. Needle electrodes were placed near the ear canal at the causoventral position, the vertex of the skull, and a ground at the lower leg. The stimulus level was from 10 to 90 dB in 5 dB steps, and the tone-pip frequencies were 4, 24, and 32 kHz. The ceiling sound pressure level was 90 dB. ABR threshold was observed by visual inspection of stacked waveforms as the lowest sound pressure level, at which the waveform was above the noise floor.
An aqueous composition of 0.5M sodium thiosulfate/2% (w/v) hyaluronan (STS Composition) or vehicle was dosed intratympanically onto the round window in the left ear (LE) as described above, and the right ear (RE) was left untreated in the guinea pigs (FIG. 5).
Because of heterogeneity of hearing loss after cisplatin challenge, the untreated right ears was used to select the animals with hearing loss. There were 21 animals with right ear threshold >60 dB at 32 kHz. Of these 21 animals, 3 with otitis media were excluded, leaving 18 animals for the final analysis. 10 animals were dosed with vehicle and 8 animals were dosed with STS Composition (FIG. 4B). […]

On to `O=S([O-])([O-])=S.[Na+].[Na+]` [sodium thiosulfate], for which the “protection (on average)” value came to 80%.
